Data on 34 compounds can be found in patent US10080739B2, “Aryl imidazoles and their use as anti-cancer agents” (Aptose Biosciences Inc., priority 2003, dated 2018).

Like-named read-outs stand apart in the source and are kept apart here.

By melting point is commonly meant the temperature, or range, at which the solid turns liquid.

In series [1] the test system is human colon carcinoma cells (HT-29). As to the kind of experiment: XTT cell proliferation assay, HT-29 cells, 48 h. The class given is cell-based. As to conditions: read-out: % Survival; for viability at 25 µM: 25 μM compound; for viability at 100 µM: 100 μM compound. The protocol: (§1) Selected compounds of Formula I were tested for anti-cancer activity in vitro using a human colon carcinoma cells (HT-29) and human non-small cell lung cancer cells (H460). The cells were maintained in α-MEM medium (Wisent, St-Bruno, Qc) supplemented with 10% FBS, and grown at 37° C. in an atmosphere of 5% CO2. Cells were transferred onto 150 mm tissue culture plates and grown until sub-confluency (70-80%) prior to their use.
(§2) The anti-cancer activity in vitro was evaluated by a cell proliferation assay based on the ability of live cells to reduce the tetrazolium salt XTT to orange coloured compounds of formazan (XTT cell proliferation kit II, Roche Applied Science, Montreal, QC).
(§3) Approximately 4×10^3 colon cancer cells (HT-29) or 2×10^3 non-small cell lung cancer cells (NCI-H460) in 100 μl of complete culture medium were plated onto 96-well microtiter plates and incubated overnight at 37° C. The medium was then removed by inverting the plate and patting on a sterile absorbent cloth. Fifty μl of medium containing the test compound at either 25 or 100 μM, were added to the wells containing cells and incubated at 37° C. in an atmosphere of 5% CO2 for 48 h. Following incubation, 25 μl of an XTT reaction mixture (XTT at a final concentration of 0.3 mg/ml) were added to each well and the plates were incubated for a further 4 h. The absorbance of each sample was then determined at a wavelength of 490 nm/650 nm as reference. Each compound was tested in duplicate and the results are reported as averages.
A general note: Tetrazolium assays rely on reduction of a dye to a coloured formazan, in cell work by metabolically active cells.

The test system of series [2] is human non-small cell lung cancer cells (H460). Kind of series: XTT cell proliferation assay, H460 cells, 48 h. The class given is cell-based. As to conditions: read-out: % Survival. As to the method: as §1, §2, §3
[3] abbreviates: NCI-H460 cells, 25 μM compound, 48 h, XTT.
Setting [4] is: NCI-H460 cells, 100 μM compound, 48 h, XTT.

In turn, `Brc1ccc2[nH]cc(-c3nc(-c4ccc(-c5ccccc5)cc4)c(-c4ccc(-c5ccccc5)cc4)[nH]3)c2c1` [Compound 41] yielded a melting point of 155 to 158 °C.

For `Cc1[nH]c2ccccc2c1-c1nc(-c2cccc([N+](=O)[O-])c2)c(-c2cccc([N+](=O)[O-])c2)[nH]1` [Compound 29], the viability at 25 µM came to 37.1% in series [1] and 73.8% in series [2] (NCI-H460, 48 h). For the same compound, the viability at 100 µM in series [1] worked out at 20.9%; in series [2] (NCI-H460, 48 h), 20.2%.

On to `Cc1[nH]c2ccccc2c1-c1nc(-c2ccccc2)c(-c2ccc(Br)cc2)[nH]1` [Compound 42], for which the viability at 25 µM in series [1] came to 59.9%; in series [2] (setting [3]) it was 66.1%. Moreover, the viability at 100 µM in series [1] turned out to be 1.8%; in series [2] (setting [4]), 1.2%.

Compound `O=[N+]([O-])c1ccc2c3ccccc3c3nc(-c4c[nH]c5ccccc45)[nH]c3c2c1` had a melting point of 365 to 366 °C.

Take `Brc1ccc(-c2nc(-c3c[nH]c4ccc(Br)cc34)[nH]c2-c2ccc(Br)cc2)cc1` [Compound 14]: the figures for the viability at 25 µM in series [1] and in series [2] (setting [3]) were 55.2% and 83.5%, respectively. In addition, the viability at 100 µM in series [1] came out at 3.8%; in series [2] (setting [4]), 1.8%.

For `COc1ccc(-c2nc(-c3c[nH]c4ccccc34)[nH]c2-c2ccccc2)cc1OC` [Compound 152], the melting point was 258 to 259 °C.

Take `Cc1[nH]c2ccccc2c1-c1nc(-c2ccccc2)c(-c2ccc(F)cc2)[nH]1` [Compound 35]: the values for the viability at 25 µM in series [1] and in series [2] (setting [3]) were 44.1% and 83.8%, respectively. Also, the viability at 100 µM in series [1] came to 2.5%; in series [2] (setting [4]), 1.2%.

Consider `Nc1ccc2c3ccccc3c3nc(-c4c[nH]c5ccc(Br)cc45)[nH]c3c2c1`, for which the melting point lay within 300 to 303 °C.

Consider `Cc1[nH]c2ccccc2c1-c1nc(-c2cccc3ccccc23)c(-c2ccccc2)[nH]1` [Compound 180], for which the melting point was in the range of 239 to 240 °C.

On to `Cc1[nH]c2ccccc2c1-c1nc(-c2ccc(Br)cc2)c(-c2ccc(Br)cc2)[nH]1` [Compound 13], for which the viability at 25 µM in series [1] amounted to 106%; in series [2] (setting [3]), 102%. The viability at 100 µM in series [1] was found to be 82.4%; in series [2] (setting [4]), 96.2%.

For the compound `Fc1ccc(-c2[nH]c(-c3c[nH]c4ccc(Br)cc34)nc2-c2ccccc2)cc1` [Compound 36], the viability at 25 µM in series [1] stood at 31.6%; in series [2] (setting [3]), 24.5%. For the same compound, the viability at 100 µM is 4.7% in series [1] and 2.4% in series [2] (setting [4]).

As to `COc1ccc(-c2nc(-c3c(C)[nH]c4ccccc34)[nH]c2-c2ccc(OC)cc2)cc1` [Compound 9], the viability at 25 µM in series [1] was found to be 68.3%; in series [2] (setting [3]), 98.2%. Also, the viability at 100 µM stood at 15.1% in series [1] and 8.4% in series [2] (setting [4]).

With `c1ccc2c(-c3nc4c5ccccc5c5ccccc5c4[nH]3)c[nH]c2c1` [Compound 46], in series [1], the viability at 25 µM was found to be 16.1% and the viability at 100 µM is 4.5%. Also, in series [2] (NCI-H460, 48 h), the viability at 25 µM was found to be 11.5% and the viability at 100 µM came to 1.9%.

With `Cc1[nH]c2ccccc2c1-c1nc(-c2ccncc2)c(-c2ccc(F)cc2)[nH]1` [Compound 27], the viability at 25 µM in series [1] was found to be 62.3%; in series [2] (setting [3]), 93.5%. Moreover, the figures for the viability at 100 µM in series [1] and in series [2] (setting [4]) were 35% and 43.1%, respectively.

For `Cc1[nH]c2ccccc2c1-c1nc(-c2ccccc2)c(-c2ccc(Cl)cc2)[nH]1` [Compound 31], the viability at 25 µM worked out at 98.6% in series [1] and 94% in series [2] (setting [3]). In addition, the viability at 100 µM in series [1] worked out at 24.9%; in series [2] (setting [4]) it was 37.6%.

As for `Cc1ccc(-c2nc(-c3c(C)[nH]c4ccccc34)[nH]c2-c2ccc(C)cc2)cc1` [Compound 23], the viability at 25 µM worked out at 98.2% in series [1] and 96.3% in series [2] (setting [3]). The results for the viability at 100 µM in series [1] and in series [2] (setting [4]) were 45.7% and 92.1%, respectively.

As for `Cc1[nH]c2ccccc2c1-c1nc(-c2ccc(Oc3ccccc3)cc2)c(-c2ccc(Oc3ccccc3)cc2)[nH]1` [Compound 38], the viability at 25 µM in series [1] is 67%; in series [2] (setting [3]), 98.8%. The viability at 100 µM in series [1] is 35.7%; in series [2] (setting [4]) it was 12.2%.

The compound `Nc1ccc(-c2[nH]c(-c3c[nH]c4ccccc34)nc2-c2ccccc2)cc1` [Compound 182] showed a melting point of 264 to 265 °C.

Regarding `Brc1ccc(-c2[nH]c(-c3c[nH]c4ccc(Br)cc34)nc2-c2ccccc2)cc1` [Compound 43], the figures for the viability at 25 µM in series [1] and in series [2] (setting [3]) were 28% and 18.8%, respectively. Moreover, the values for the viability at 100 µM in series [1] and in series [2] (setting [4]) were 5.7% and 3%, respectively.

On to `Cc1[nH]c2ccccc2c1-c1nc2c3ccccc3c3ccccc3c2[nH]1` [Compound 44], for which, in series [1], the viability at 25 µM turned out to be 63.6% and the viability at 100 µM was 6.5%. In series [2] (NCI-H460, 48 h), the viability at 25 µM stood at 77.3% and the viability at 100 µM is 3.4%.

Consider `Cc1[nH]c2ccccc2c1-c1nc(-c2ccc(N(C)C)cc2)c(-c2ccc(N(C)C)cc2)[nH]1` [Compound 11], for which the viability at 25 µM in series [1] was found to be 108%; in series [2] (setting [3]), 98.8%. The values for the viability at 100 µM in series [1] and in series [2] (setting [4]) were 94.3% and 102%, respectively.

In the case of `COC(=O)c1ccc2c(-c3nc(-c4ccccc4)c(-c4ccccc4)[nH]3)c[nH]c2c1` [Compound 83], the figures for the viability at 25 µM in series [1] and in series [2] (setting [3]) were 100% and 101%, respectively. In addition, the viability at 100 µM in series [1] is 110%; in series [2] (setting [4]), 109%.

Regarding `O=[N+]([O-])c1ccc(-c2[nH]c(-c3c[nH]c4ccc(Br)cc34)nc2-c2ccccc2)cc1` [Compound 34], the viability at 25 µM in series [1] was 22.8%; in series [2] (setting [3]) it was 17.4%. Further, the viability at 100 µM in series [1] was 10.8%; in series [2] (setting [4]) it was 7.6%.

On to `CC(=O)n1c(-c2c(C)n(C(C)=O)c3ccccc23)nc(-c2ccccc2)c1-c1ccccc1` [Compound 5], for which the viability at 25 µM in series [1] is 111%; in series [2] (setting [3]), 102%. Further, the viability at 100 µM was 111% in series [1] and 106% in series [2] (setting [4]).

`CCc1c2c(nc3ccc(OC(=O)N4CCC(N5CCCCC5)CC4)cc13)-c1cc3c(c(=O)n1C2)COC(=O)[C@]3(O)CC` [CPT-11, irinotecan, reference compound]: the viability at 25 µM is 82.3% in series [1] and 32.2% in series [2] (setting [3]). Moreover, the viability at 100 µM in series [1] was determined as 51.1%; in series [2] (setting [4]), 6.1%.

On to `Clc1ccc(-c2[nH]c(-c3c[nH]c4ccc(Br)cc34)nc2-c2ccccc2)cc1` [Compound 32], for which the viability at 25 µM in series [1] came to 22.7%; in series [2] (setting [3]) it was 15%. In addition, the viability at 100 µM was found to be 7.7% in series [1] and 2.9% in series [2] (setting [4]).

As for `COc1ccc(-c2nc(-c3c[nH]c4ccc(Br)cc34)[nH]c2-c2ccc(OC)cc2)cc1` [Compound 10], the viability at 25 µM in series [1] worked out at 25.8%; in series [2] (setting [3]), 26.9%. Also, the viability at 100 µM was found to be 7.6% in series [1] and 2.7% in series [2] (setting [4]).

As to `Cc1[nH]c2ccccc2c1-c1nc(-c2ccccc2)c(-c2ccc([N+](=O)[O-])cc2)[nH]1` [Compound 33], the values for the viability at 25 µM in series [1] and in series [2] (setting [3]) were 56.1% and 73.4%, respectively. Moreover, the viability at 100 µM in series [1] amounted to 10%; in series [2] (setting [4]), 9.4%.

In the case of `COc1ccc(-c2nc(-c3ccccc3)c(-c3ccccc3)[nH]2)c(OC)c1` [Compound 73], the viability at 25 µM in series [1] was found to be 65%; in series [2] (setting [3]) it was 89.2%. For the same compound, the viability at 100 µM in series [1] came out at 62.2%; in series [2] (setting [4]) it was 53.5%.

Regarding `Cc1[nH]c2ccc(Br)cc2c1-c1nc(-c2ccc(Oc3ccccc3)cc2)c(-c2ccc(Oc3ccccc3)cc2)[nH]1` [Compound 39], the viability at 25 µM in series [1] was 96.2%; in series [2] (setting [3]), 98.1%. Further, the viability at 100 µM was determined as 53% in series [1] and 17% in series [2] (setting [4]).

For `Brc1ccc2[nH]cc(-c3nc(-c4ccccc4)c(-c4ccccc4)[nH]3)c2c1` [Compound 6], the viability at 25 µM in series [1] was found to be 11.7%; in series [2] (setting [3]), 10.4%. Also, the viability at 100 µM came to 3.2% in series [1] and 1.9% in series [2] (setting [4]).

As for `Cc1[nH]c2ccccc2c1-c1nc(-c2ccc(-c3ccccc3)cc2)c(-c2ccc(-c3ccccc3)cc2)[nH]1` [Compound 40], the viability at 25 µM in series [1] was found to be 79.1%; in series [2] (setting [3]), 97.6%. For the same compound, the viability at 100 µM in series [1] was found to be 36.7%; in series [2] (setting [4]), 7.7%.

Turning to `Cc1[nH]c2ccccc2c1-c1nc(-c2cccs2)c(-c2cccs2)[nH]1` [Compound 25], the viability at 25 µM was found to be 63.9% in series [1] and 99.5% in series [2] (setting [3]). Also, the viability at 100 µM was determined as 39.8% in series [1] and 89% in series [2] (setting [4]).

On to `Clc1ccc(-c2nc(-c3c[nH]c4ccc(Br)cc34)[nH]c2-c2ccc(Cl)cc2)cc1` [Compound 20], for which the viability at 25 µM in series [1] was 100%; in series [2] (setting [3]), 98.6%. Moreover, the results for the viability at 100 µM in series [1] and in series [2] (setting [4]) were 28.1% and 82.1%, respectively.
